Assay [1] deals with Proto-oncogene tyrosine-protein kinase Src (Homo sapiens, UniProt P12931). The assay is described as follows: (§1) Kinase Assays: A concentration of a drug that reduces the observed activity of an enzyme by 50%. An IC50 is not a true affinity constant and the specific value determined can vary depending on the particular assay used. Nonetheless the rank order of IC50 for a set of compounds will typically be similar from one assay to another. (The true affinity constant for an inhibitor binding to an enzyme, Ki, can of course also be used for the same purposes as described herein for IC50). With respect to the kinases that are targeted by the compounds disclosed herein, kinase activity can be assayed, without limitation, as consumption of ATP or as incorporation of phosphate into a substrate. For example, the assay used in Example 76 assesses consumption of ATP based on luminescent detection of ADP. As an alternate example, the assay used in Example 78 assesses incorporation of phosphate based on the radiologic detection of 33P-labeled artificial substrates. Myriad other kinase assays are known in the art many of which are commercially available either as a kit or a service and one of skill in the art will recognize their particular usefulness for generating IC50 data.
Sequence of Proto-oncogene tyrosine-protein kinase Src (P12931 2-536 limits assumed): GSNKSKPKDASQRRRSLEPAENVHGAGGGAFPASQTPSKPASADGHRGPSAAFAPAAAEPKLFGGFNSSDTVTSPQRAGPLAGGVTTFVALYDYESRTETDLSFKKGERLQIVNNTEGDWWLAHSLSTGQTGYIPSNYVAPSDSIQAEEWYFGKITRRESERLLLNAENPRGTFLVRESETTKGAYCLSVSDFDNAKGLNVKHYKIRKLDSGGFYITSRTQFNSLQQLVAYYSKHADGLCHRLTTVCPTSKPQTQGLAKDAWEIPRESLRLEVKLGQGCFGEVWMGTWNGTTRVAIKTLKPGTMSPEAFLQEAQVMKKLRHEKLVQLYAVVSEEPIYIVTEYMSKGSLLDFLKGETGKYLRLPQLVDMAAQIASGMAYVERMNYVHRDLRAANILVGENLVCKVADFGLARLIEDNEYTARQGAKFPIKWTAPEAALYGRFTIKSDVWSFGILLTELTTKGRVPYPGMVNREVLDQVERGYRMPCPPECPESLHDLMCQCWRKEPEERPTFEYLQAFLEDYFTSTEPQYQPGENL

In assay [2] the target is Tyrosine-protein kinase Lyn (Homo sapiens, UniProt P07948). Described as §1.
Sequence of Tyrosine-protein kinase Lyn (P07948 whole entry): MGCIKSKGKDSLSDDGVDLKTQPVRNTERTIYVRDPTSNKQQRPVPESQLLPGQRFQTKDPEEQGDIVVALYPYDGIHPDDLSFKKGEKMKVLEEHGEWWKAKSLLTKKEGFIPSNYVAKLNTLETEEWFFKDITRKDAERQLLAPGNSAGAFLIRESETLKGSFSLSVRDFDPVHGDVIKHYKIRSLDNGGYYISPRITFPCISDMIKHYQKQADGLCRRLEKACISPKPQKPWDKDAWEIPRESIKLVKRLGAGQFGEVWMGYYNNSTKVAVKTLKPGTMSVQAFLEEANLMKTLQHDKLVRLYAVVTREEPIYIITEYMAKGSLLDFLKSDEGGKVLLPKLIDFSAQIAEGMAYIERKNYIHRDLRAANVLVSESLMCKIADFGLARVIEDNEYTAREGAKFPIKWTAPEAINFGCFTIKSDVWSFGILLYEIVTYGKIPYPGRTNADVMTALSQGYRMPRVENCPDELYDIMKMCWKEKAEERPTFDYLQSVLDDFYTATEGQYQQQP

Regarding `CC(C)n1c(=O)c(-c2c(F)cccc2F)cc2cnc(Nc3ccc(F)cn3)cc21`, the IC50 in assay [1] and in assay [2] was over 5 µM each time.
As to `CCN(CC)CCOc1ccc(Nc2cc3c(cn2)cc(C(C)C)c(=O)n3C)nc1`, the IC50 in assay [2] was over 5 µM.

A word on the IC50: it is the concentration needed to halve the response being measured. High values mean weaker potency, low ones greater potency.

The values are drawn from ChEMBL document CHEMBL5725536, “Multiple kinase pathway inhibitors” (2017).
